PubChem BioAssay (NCI)
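Method: 48-hour compound exposure of cells in 96-well plates, five concentrations, linear interpolation of endpoints. TGI denotes the concentration required for complete inhibition of growth.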 Where a SMILES comes first, the peptide text is derived from it. Side-chain parts run from the residue outwards. The star is where a group is joined. Cbz = O=C(OCc1ccccc1)*; Boc = CC(C)(C)OC(=O)*

Assays:
Test in all cases: NCI anticancer screen, dose series, 48 h
NCI-H23 lung = system: NCI-H23 lung
T-47D breast = system: T-47D breast
OVCAR-8 ovarian = system: OVCAR-8 ovarian
A549 NSCLC = system: A549 NSCLC
786-0 renal = system: 786-0 renal
SK-MEL-28 melanoma = system: SK-MEL-28 melanoma
HT29 colon = system: HT29 colon
SK-OV-3 ovarian = system: SK-OV-3 ovarian
SN12C renal = system: SN12C renal
SK-MEL-2 melanoma = system: SK-MEL-2 melanoma
M14 melanoma = system: M14 melanoma
HL-60(TB) leukemia = system: HL-60(TB) leukemia
SW-620 colon = system: SW-620 colon
NCI-H522 lung = system: NCI-H522 lung
HCT-15 colon = system: HCT-15 colon
NCI-H460 lung = system: NCI-H460 lung
ACHN renal = system: ACHN renal

| Compound | TGI (NCI-H23 lung) | TGI (T-47D breast) | TGI (OVCAR-8 ovarian) | TGI (A549 NSCLC) | TGI (786-0 renal) | TGI (SK-MEL-28 melanoma) | TGI (HT29 colon) | TGI (SK-OV-3 ovarian) | TGI (SN12C renal) | TGI (SK-MEL-2 melanoma) | TGI (M14 melanoma) | TGI (HL-60(TB) leukemia) | TGI (SW-620 colon) | TGI (NCI-H522 lung) | TGI (HCT-15 colon) | TGI (NCI-H460 lung) | TGI (ACHN renal) |
| --- | --- | --- | --- | --- | --- | --- | --- | --- | --- | --- | --- | --- | --- | --- | --- | --- | --- |
| C/C=C/COc1cc(NC(=S)c2ccoc2C)ccc1OC | > 100 µM | > 100 µM | > 100 µM | > 100 µM | > 100 µM | > 100 µM | > 100 µM | > 100 µM | > 100 µM | > 100 µM | > 100 µM | > 100 µM | > 100 µM | > 100 µM | > 100 µM | – | – |
| CC(C)CC(NC(=O)OCc1ccccc1)C(=O)NCCCCC(NC(=O)C(CCCCNC(=O)C(CC(C)C)NC(=O)OCc1ccccc1)NC(=O)C(CCCCNC(=O)C(CC(C)C)NC(=O)OCc1ccccc1)NC(=O)C(CCCCNC(=O)C(CC(C)C)NC(=O)OCc1ccccc1)NC(=O)OC(C)(C)C)C(=O)O (configuration not stated) (Boc-K([Leu-Cbz])K([Leu-Cbz])K([Leu-Cbz])K([Leu-Cbz])-OH; configuration not given here) | > 25 µM | > 25 µM | > 25 µM | > 25 µM | > 25 µM | > 25 µM | > 25 µM | – | > 25 µM | > 25 µM | > 25 µM | > 25 µM | > 25 µM | > 25 µM | > 25 µM | > 25 µM | > 25 µM |
| CC(=O)O[C@@H]1CC2[C@@H](CCC3Cc4nc5c(nc4C[C@@]32C)CC2CC[C@@H]3C(CC[C@@]4(C)C3CC[C@@H]4C(C)CCCC(C)C)[C@@]2(C)C5)C2C[C@@H]3OC4(CCC(C)CO4)C(C)[C@@H]3[C@]21C (some centres not stated) | > 100 µM | > 100 µM | > 100 µM | > 100 µM | > 100 µM | > 100 µM | > 100 µM | > 100 µM | > 100 µM | – | > 100 µM | > 100 µM | > 100 µM | > 100 µM | > 100 µM | > 100 µM | > 100 µM |
| CCOC(=O)C1CCCC1S(=O)(=O)c1ccc(C)cc1 (configuration not stated) | > 100 µM | > 100 µM | > 100 µM | > 100 µM | > 100 µM | > 100 µM | > 100 µM | > 100 µM | > 100 µM | – | > 100 µM | > 100 µM | > 100 µM | > 100 µM | > 100 µM | > 100 µM | > 100 µM |
| COc1cc(OC)c(NC2=NCCO2)cc1Cl | 58.1 µM | > 100 µM | > 100 µM | > 100 µM | 90 µM | > 100 µM | 47.8 µM | – | > 100 µM | 36.3 µM | 97.8 µM | > 100 µM | > 100 µM | > 100 µM | > 100 µM | 45.9 µM | > 100 µM |
| CC(C)=CCC[C@@H](C)C1=C(O)C(Nc2ccccc2F)=C(C)C(=O)C1=O | > 56.8 µM | 57.7 µM | > 100 µM | > 77.5 µM | > 100 µM | > 100 µM | > 100 µM | > 100 µM | > 100 µM | 68.3 µM | > 57.6 µM | 5.61 µM | > 100 µM | – | > 70.2 µM | > 100 µM | 49.5 µM |
| C[n+]1c(-c2ccc(/C=N/Nc3n[nH]c(=S)n3N/N=C/c3ccc(-c4cn5ccccc5[n+]4C)cc3)cc2)cn2ccccc21 | – | > 100 µM | > 100 µM | > 100 µM | > 100 µM | > 100 µM | > 100 µM | > 100 µM | > 100 µM | – | > 100 µM | > 100 µM | > 100 µM | > 100 µM | > 100 µM | > 100 µM | > 100 µM |
| CCOc1ccc(-n2c(=O)n3c(Nc4ccc(Cl)cc4)nc4c(c(=O)n(C)c(=O)n4C)n3c2=O)cc1 | 64.2 µM | > 100 µM | > 100 µM | > 100 µM | > 100 µM | 65.3 µM | > 100 µM | – | 74.6 µM | > 100 µM | – | 51.7 µM | 99.2 µM | 32.8 µM | 42 µM | 36.1 µM | > 100 µM |
| CCCCCCCCCCCCCCCCCCNC(=S)/N=C/c1c(O)cc(C)oc1=O | 47.8 µM | > 100 µM | 63.4 µM | 69.5 µM | > 100 µM | > 100 µM | 76.8 µM | 87.4 µM | > 100 µM | 52.1 µM | 41.9 µM | > 100 µM | 96 µM | – | 62 µM | > 100 µM | 65.4 µM |
| COc1ccc(CCNC(=S)/N=C\C2=C(O)c3ccccc3C2=O)cc1OC | > 100 µM | > 100 µM | > 100 µM | > 100 µM | > 100 µM | > 100 µM | > 100 µM | > 100 µM | > 100 µM | > 100 µM | > 100 µM | > 100 µM | > 100 µM | > 100 µM | > 100 µM | – | > 100 µM |
| CC(C)(CO)NC(=O)c1cccc(C(=O)NC(C)(C)CO)c1Br | > 100 µM | > 100 µM | > 100 µM | > 100 µM | > 100 µM | > 100 µM | > 100 µM | – | – | > 100 µM | > 100 µM | > 100 µM | > 100 µM | – | > 100 µM | > 100 µM | > 100 µM |
| CC1(C)N=C(/C(C#N)=[N+](/[O-])C(=O)c2ccccc2)C(C)(C)N1O | > 100 µM | > 100 µM | > 100 µM | > 100 µM | > 100 µM | > 100 µM | > 100 µM | > 100 µM | > 100 µM | > 100 µM | > 100 µM | > 100 µM | > 100 µM | – | > 100 µM | > 100 µM | > 100 µM |
| Cc1ccc(N2C(=O)C(O)=C(C(=O)C(C)(C)C)C2c2ccc([N+](=O)[O-])cc2)cc1 (configuration not stated) | 35.2 µM | 52.5 µM | 59.1 µM | 82.5 µM | 39.9 µM | 63.6 µM | 37.3 µM | 57.2 µM | 52.8 µM | 58.5 µM | 46.2 µM | 33.9 µM | – | – | 47.4 µM | 30.5 µM | 45.9 µM |
